Results: ChEMBL document CHEMBL1146654, “3-(7-Azaindolyl)-4-arylmaleimides as potent, selective inhibitors of glycogen synthase kinase-3” (Bioorg Med Chem Lett, 2004)

What was measured:
Design in all cases: scale not given: the % may be the effect or the level left
[1] = molecular target: Mitogen-activated protein kinase 9 (Homo sapiens) (UniProt P45984); test: Inhibition of c-Jun N-terminal kinase 2-alpha 2
[2] = molecular target: T1, Protein kinase C epsilon type (Homo sapiens) (UniProt Q02156); test: Inhibition of PKCepsilon
T1 sequence (whole entry): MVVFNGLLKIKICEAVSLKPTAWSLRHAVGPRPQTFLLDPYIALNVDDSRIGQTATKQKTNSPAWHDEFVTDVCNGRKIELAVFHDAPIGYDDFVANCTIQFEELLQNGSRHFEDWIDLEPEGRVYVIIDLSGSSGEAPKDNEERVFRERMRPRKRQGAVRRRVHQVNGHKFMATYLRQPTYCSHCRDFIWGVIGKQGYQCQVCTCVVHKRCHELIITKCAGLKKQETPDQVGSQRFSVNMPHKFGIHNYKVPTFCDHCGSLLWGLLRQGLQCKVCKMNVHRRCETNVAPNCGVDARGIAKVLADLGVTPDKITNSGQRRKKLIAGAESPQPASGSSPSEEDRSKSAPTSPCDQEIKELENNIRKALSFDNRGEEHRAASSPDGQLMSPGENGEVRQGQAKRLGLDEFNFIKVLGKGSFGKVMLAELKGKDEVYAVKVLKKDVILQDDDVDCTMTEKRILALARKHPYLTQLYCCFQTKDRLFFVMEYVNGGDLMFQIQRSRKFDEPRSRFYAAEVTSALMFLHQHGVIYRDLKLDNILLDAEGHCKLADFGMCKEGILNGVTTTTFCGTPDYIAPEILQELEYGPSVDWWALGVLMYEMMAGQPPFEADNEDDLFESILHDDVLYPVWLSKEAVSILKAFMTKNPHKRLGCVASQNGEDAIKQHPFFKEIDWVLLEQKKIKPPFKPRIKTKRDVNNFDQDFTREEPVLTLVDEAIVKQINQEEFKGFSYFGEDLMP

[3] = molecular target: Ribosomal protein S6 kinase alpha-1 (Rattus norvegicus) (UniProt Q63531); test: Inhibition of Ribosomal S6 kinase 1
Ribosomal protein S6 kinase alpha-1 (Rattus norvegicus), sequence (Q63531 whole entry): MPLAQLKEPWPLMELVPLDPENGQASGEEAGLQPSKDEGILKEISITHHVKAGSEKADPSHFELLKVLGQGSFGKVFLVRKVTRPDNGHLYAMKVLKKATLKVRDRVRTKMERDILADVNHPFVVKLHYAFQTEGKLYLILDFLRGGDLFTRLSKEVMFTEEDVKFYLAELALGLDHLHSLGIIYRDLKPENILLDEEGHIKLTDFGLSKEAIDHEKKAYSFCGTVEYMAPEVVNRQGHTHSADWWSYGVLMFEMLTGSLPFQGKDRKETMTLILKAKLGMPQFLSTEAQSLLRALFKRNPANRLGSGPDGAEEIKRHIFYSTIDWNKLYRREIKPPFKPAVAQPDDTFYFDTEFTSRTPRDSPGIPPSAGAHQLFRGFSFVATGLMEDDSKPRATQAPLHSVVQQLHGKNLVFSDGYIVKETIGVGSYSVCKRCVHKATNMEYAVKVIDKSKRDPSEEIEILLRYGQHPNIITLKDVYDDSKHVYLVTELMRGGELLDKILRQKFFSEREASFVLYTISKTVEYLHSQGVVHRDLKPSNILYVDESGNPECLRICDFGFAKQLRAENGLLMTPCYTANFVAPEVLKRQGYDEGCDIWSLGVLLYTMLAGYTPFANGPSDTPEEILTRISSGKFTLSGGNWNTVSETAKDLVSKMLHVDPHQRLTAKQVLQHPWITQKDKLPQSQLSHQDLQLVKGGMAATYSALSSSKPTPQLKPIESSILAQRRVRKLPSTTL

[4] = molecular target: T2, Tyrosine-protein kinase ZAP-70 (Homo sapiens) (UniProt P43403); test: Inhibition of Zeta-chain (TCR) associated protein kinase 70 kDa (ZAP70)
T2 sequence (whole entry): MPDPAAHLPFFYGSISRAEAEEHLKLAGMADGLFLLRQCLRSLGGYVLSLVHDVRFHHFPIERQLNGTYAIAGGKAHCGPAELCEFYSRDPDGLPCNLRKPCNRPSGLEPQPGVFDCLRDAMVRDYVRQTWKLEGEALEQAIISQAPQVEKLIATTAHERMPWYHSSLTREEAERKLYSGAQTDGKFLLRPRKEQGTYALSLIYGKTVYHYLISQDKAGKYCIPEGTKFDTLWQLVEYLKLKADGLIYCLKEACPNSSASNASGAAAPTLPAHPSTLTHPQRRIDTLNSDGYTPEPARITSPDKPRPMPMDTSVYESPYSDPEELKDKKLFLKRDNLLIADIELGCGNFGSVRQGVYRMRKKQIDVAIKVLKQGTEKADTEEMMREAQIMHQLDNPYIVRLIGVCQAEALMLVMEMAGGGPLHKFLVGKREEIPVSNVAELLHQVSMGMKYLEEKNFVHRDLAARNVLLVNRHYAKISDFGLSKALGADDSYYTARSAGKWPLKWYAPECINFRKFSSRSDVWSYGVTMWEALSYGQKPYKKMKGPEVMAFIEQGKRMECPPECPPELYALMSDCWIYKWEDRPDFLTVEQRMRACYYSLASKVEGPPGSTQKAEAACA

[5] = molecular target: RAC-beta serine/threonine-protein kinase (Homo sapiens) (UniProt P31751); test: Inhibition of PKBbeta
RAC-beta serine/threonine-protein kinase (Homo sapiens), sequence (P31751 whole entry): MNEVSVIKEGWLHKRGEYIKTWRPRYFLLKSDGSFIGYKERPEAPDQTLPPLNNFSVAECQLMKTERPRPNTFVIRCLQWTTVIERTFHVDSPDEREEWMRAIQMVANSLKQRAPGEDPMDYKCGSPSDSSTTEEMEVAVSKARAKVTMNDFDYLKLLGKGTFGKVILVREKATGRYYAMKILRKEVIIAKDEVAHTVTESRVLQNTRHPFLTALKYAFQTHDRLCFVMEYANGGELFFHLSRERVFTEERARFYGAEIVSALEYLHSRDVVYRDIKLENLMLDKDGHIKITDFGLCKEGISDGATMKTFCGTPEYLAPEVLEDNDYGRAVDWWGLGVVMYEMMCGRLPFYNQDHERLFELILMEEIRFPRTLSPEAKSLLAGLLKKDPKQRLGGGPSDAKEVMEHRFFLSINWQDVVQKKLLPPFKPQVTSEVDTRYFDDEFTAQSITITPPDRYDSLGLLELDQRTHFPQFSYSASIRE

[6] = molecular target: T3, Mitogen-activated protein kinase 13 (Homo sapiens) (UniProt O15264); test: Inhibition of Stress activated protein kinase 4
T3 sequence (whole entry): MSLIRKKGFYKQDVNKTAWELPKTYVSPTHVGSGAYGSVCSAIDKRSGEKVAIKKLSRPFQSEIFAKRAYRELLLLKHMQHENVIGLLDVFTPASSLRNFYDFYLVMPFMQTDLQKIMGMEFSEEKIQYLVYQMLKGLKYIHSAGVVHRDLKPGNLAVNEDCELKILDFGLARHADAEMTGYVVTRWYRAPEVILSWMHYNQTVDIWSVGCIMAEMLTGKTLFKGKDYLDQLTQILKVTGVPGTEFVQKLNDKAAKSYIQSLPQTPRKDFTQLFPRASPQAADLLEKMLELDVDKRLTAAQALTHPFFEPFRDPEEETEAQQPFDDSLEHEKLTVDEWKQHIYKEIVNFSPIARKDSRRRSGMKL

[7] = molecular target: Protein kinase C theta type (Homo sapiens) (UniProt Q04759); test: Inhibition of PKCtheta
Protein kinase C theta type (Homo sapiens), sequence (Q04759 whole entry, looked up): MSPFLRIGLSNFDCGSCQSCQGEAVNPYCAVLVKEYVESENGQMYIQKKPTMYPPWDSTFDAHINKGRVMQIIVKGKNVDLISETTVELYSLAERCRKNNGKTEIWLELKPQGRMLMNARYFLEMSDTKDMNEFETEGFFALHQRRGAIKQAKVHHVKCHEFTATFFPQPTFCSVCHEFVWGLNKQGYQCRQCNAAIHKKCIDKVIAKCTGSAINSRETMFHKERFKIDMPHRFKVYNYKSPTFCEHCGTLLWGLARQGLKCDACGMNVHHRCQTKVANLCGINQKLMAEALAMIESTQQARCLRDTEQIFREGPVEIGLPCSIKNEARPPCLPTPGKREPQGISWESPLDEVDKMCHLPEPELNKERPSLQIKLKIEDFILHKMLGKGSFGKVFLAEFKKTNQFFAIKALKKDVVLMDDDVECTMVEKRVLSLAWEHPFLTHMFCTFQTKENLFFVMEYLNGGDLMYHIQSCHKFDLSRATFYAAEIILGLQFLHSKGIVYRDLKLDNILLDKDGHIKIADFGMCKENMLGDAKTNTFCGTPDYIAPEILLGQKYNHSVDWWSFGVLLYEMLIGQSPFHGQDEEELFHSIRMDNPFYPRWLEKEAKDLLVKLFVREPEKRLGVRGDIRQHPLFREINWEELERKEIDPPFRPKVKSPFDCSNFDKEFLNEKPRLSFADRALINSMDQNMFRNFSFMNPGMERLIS

[8] = molecular target: T4, Calcium/calmodulin-dependent protein kinase type IV (Homo sapiens) (UniProt Q16566); test: Inhibition of Calcium/calmodulin-dependent protein kinase type IV
T4 sequence (whole entry): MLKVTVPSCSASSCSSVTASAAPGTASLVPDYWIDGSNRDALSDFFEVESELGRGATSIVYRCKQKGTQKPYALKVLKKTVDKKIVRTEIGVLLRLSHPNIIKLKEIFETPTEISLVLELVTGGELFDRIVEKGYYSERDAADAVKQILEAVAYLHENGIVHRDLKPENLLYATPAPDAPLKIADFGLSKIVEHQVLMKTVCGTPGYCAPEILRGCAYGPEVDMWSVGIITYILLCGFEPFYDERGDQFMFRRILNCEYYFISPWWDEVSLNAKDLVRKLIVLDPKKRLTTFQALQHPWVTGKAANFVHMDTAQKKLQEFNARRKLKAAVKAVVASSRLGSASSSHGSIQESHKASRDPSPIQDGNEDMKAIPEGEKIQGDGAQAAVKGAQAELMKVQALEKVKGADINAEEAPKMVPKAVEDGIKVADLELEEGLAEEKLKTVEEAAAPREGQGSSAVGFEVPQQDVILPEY

[9] = molecular target: Tyrosine-protein kinase Blk (Mus musculus) (UniProt P16277); test: Inhibition of B lymphoid tyrosine kinase
Tyrosine-protein kinase Blk (Mus musculus), sequence (P16277 whole entry): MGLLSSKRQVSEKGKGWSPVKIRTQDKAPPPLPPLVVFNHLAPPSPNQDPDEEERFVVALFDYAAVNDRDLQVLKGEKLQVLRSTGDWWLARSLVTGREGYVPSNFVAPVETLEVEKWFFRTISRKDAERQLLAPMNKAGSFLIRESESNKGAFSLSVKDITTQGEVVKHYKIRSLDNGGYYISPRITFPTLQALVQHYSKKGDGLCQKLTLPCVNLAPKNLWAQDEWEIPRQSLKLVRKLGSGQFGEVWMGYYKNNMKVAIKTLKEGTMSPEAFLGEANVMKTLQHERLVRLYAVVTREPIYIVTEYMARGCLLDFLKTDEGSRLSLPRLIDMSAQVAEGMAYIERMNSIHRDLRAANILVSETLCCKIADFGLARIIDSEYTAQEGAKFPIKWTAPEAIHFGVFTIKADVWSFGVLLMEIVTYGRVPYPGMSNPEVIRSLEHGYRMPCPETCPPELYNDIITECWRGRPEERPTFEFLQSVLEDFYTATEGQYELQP

[10] = molecular target: T5, Serine/threonine-protein kinase Chk1 (Homo sapiens) (UniProt O14757); test: Inhibition of Serine/threonine-protein kinase Chk1
T5 sequence (whole entry): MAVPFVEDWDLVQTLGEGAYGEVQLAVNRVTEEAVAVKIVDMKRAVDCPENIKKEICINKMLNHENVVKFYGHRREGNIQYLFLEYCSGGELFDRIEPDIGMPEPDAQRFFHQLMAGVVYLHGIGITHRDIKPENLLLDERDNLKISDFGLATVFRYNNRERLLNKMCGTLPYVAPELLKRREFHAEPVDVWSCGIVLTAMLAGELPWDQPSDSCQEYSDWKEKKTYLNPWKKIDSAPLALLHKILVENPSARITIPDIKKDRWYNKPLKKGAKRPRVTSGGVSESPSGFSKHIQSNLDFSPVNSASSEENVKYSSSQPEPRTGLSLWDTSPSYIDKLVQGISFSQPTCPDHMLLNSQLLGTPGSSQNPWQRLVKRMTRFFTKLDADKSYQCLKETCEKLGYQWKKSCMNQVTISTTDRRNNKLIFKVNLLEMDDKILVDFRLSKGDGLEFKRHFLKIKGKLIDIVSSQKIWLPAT

Mitogen-activated protein kinase 9 (Homo sapiens), sequence (P45984 whole entry, looked up): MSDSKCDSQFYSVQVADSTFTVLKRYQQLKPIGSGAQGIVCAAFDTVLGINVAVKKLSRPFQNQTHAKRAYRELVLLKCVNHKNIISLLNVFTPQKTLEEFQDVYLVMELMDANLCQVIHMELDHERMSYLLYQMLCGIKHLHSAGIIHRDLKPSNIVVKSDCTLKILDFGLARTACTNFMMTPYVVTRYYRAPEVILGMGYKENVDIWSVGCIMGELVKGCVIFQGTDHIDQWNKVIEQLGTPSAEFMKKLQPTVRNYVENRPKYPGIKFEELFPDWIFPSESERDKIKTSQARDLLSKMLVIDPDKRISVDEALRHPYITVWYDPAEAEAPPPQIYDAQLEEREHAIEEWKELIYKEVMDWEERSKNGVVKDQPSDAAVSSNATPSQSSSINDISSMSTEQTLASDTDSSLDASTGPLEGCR

Row | Structure (SMILES) | Activity [1] [%] | Activity [2] [%] | Activity [3] [%] | Activity [4] [%] | Activity [5] [%] | Activity [6] [%] | Activity [7] [%] | Activity [8] [%] | Activity [9] [%] | Activity [10] [%]
1 | O=C1NC(=O)C(c2cn(CCCO)c3ncccc23)=C1c1ncc(C(F)(F)F)cc1Cl | 93 | 67 | 66 | 91 | 69 | 86 | 66 | 82 | 67 | 73
2 | COc1ccccc1C1=C(c2cn(CCCNC(=O)OC(C)(C)C)c3ncccc23)C(=O)NC1=O | 84 | 54 | 38 | 112 | 99 | 100 | 71 | 91 | 63 | 95
3 | COCCCn1cc(C2=C(c3ccccc3O)C(=O)NC2=O)c2cccnc21 | 63 | 49 | 48 | 100 | 82 | 97 | 46 | 82 | 75 | 78
